pIC50: −log10 of the molar value. Structures can show the parent of a compound that is named as a salt.

What is called pIC50 is the IC50 on a negative log10 scale, so that one unit is a factor of ten.

Steroidogenic factor 1, sequence (Q13285 whole entry, the tested form may be a part): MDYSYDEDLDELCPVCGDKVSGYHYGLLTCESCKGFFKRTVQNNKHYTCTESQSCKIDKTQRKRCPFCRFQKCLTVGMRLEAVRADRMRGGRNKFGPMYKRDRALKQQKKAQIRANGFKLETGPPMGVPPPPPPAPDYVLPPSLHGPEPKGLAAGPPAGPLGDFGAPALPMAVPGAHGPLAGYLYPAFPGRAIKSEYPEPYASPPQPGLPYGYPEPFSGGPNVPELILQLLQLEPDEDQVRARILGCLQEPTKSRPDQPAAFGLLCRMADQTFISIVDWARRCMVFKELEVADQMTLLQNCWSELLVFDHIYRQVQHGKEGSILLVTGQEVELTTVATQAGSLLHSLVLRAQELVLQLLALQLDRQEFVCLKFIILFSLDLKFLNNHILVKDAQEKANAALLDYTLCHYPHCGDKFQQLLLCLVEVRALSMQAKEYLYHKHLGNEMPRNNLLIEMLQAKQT

The first assay has as its target Steroidogenic factor 1 (Homo sapiens, UniProt Q13285). Briefly: SF-1 inhibitor potency, dose response, cell-based, CHO-K1, Gal4-SF-1 LBD, luciferase luminescence (AID 600).
Settings: not given
In the case of `COc1ccc(Cl)c(Cn2c(NCc3ccco3)nc3c2c(=O)n(C)c(=O)n3C)c1` [7-(2-chloro-5-methoxy-benzyl)-8-(2-furfurylamino)-1,3-dimethyl-xanthine], the pIC50 was under 4.00.
Turning to `C=CS(=O)(=O)c1ccc(Oc2ccc(S(=O)(=O)C=C)cc2)cc1` [1-ethenylsulfonyl-4-(4-ethenylsulfonylphenoxy)benzene], the pIC50 is 5.38.
On to `Clc1cccc(-c2nc(-c3ccccn3)no2)c1` [2-[5-(3-Chloro-phenyl)-[1,2,4]oxadiazol-3-yl]-pyridine], for which the pIC50 is under 5.44.
On the same count and under the same terms, the figure for `O=C(CSc1nnnn1-c1ccccc1)Nc1nsc(-c2ccc(Cl)cc2)n1` [MLS000085595] is 5.31.
Still for that read-out and setting: the figure for `CC(C)c1ccc2oc(-c3cc(N)ccc3O)nc2c1` [(6E)-4-amino-6-(5-isopropyl-3H-1,3-benzoxazol-2-ylidene)cyclohexa-2,4-dien-1-one] is 4.98.
With `Clc1ccc(-n2ncc3c(N4CCCCCC4)ncnc32)cc1` [4-(1-azepanyl)-1-(4-chlorophenyl)pyrazolo[3,4-d]pyrimidine], the pIC50 was 5.50.
On the same count and under the same terms, the result for `CCc1ccc2oc(-c3ccc(N)cc3)nc2c1` [4-(5-ethyl-1,3-benzoxazol-2-yl)aniline] reads under 5.44; that for `CSCc1nnc(NC(=O)c2ccc(S(=O)(=O)N(CC(C)C)CC(C)C)cc2)o1` [4-(diisobutylsulfamoyl)-N-[5-[(methylthio)methyl]-1,3,4-oxadiazol-2-yl]benzamide], under 4.96; that for `CCOc1ccc(OCc2cccc(C(=O)O)c2)cc1` [3-[(4-ethoxyphenoxy)methyl]benzoic acid], 6.29.
On the same count and under the same terms, the result for `COCCn1c(C)cc(C(=O)COC(=O)c2[nH]nc3ccccc23)c1C` [SMR000068187] reads 5.01; that for `COc1ccc(C(=O)Nn2c(SCC(=O)NCc3ccco3)nc3ccccc3c2=O)cc1` [MLS000097349], 5.24.
On the same count and under the same terms, the figure for `CCOC(=O)c1c(N)sc(C(=O)Nc2ccc3c(c2)OCO3)c1C` [2-amino-5-(1,3-benzodioxol-5-ylcarbamoyl)-4-methyl-thiophene-3-carboxylic acid ethyl ester] is under 5.44; for `Cc1cccc(-n2ncc3c(N(C)C4CCCCC4)ncnc32)c1` [MLS000100814] it is under 5.44; for `CCOC(=O)C1C(Cn2cnc3ccccc32)=NC(=O)NC1c1cc(C)ccc1C` (centres undefined) [ethyl 6-(benzimidazol-1-ylmethyl)-4-(2,5-dimethylphenyl)-2-oxidanylidene-3,4-dihydro-1H-pyrimidine-5-carboxylate] it is 4.63.
In the case of `O=c1c2ccccc2cnn1-c1nc2ccccc2s1` [2-(1,3-benzothiazol-2-yl)-1-phthalazinone], the pIC50 was 5.67.
Still for that read-out and setting: the figure for `CC1CCc2nc(NC(=O)c3ccco3)sc2C1` (centres undefined) [MLS000063711] is under 4.96.
Same read-out and setting: the figure for `COc1ccc(CC(=O)Nc2ccc(-c3nnc(-c4ccccc4)o3)cc2)cc1OC` [2-(3,4-dimethoxyphenyl)-N-[4-(5-phenyl-1,3,4-oxadiazol-2-yl)phenyl]acetamide] is 5.61.
Same read-out and setting: the figure for `COc1ccc(/N=c2\scc(-c3ccc(S(=O)(=O)N4CCOCC4)cc3)n2CCCO)cc1` [3-[(2Z)-2-[(4-methoxyphenyl)imino]-4-[4-(morpholin-4-ylsulfonyl)phenyl]-1,3-thiazol-3(2H)-yl]propan-1-ol] is 4.66; for `CN(C)C(=O)CCc1nc(-c2ccc(C(C)(C)C)cc2)no1` [3-[3-(4-tert-butylphenyl)-1,2,4-oxadiazol-5-yl]-N,N-dimethyl-propanamide] it is 6.00; for `COC(=O)/C(=C1/Oc2cc(C)oc(=O)c2S1)C(F)(F)F` [methyl (2E)-3,3,3-tris(fluoranyl)-2-(6-methyl-4-oxidanylidene-[1,3]oxathiolo[4,5-c]pyran-2-ylidene)propanoate] it is 5.33.
`CCc1ccc(-c2nc(CSCC(=O)NCCCN3CCCC3=O)c(C)o2)cc1` [2-({[2-(4-ethylphenyl)-5-methyl-1,3-oxazol-4-yl]methyl}thio)-N-[3-(2-oxopyrrolidin-1-yl)propyl]acetamide] showed a pIC50 of 5.36.
On the same count and under the same terms, the result for `Fc1ccc2[nH]c3c(N4CCN(c5ccccc5)CC4)ncnc3c2c1` reads 5.98; that for `Cc1cnc(NC(=O)CN2CCN(c3ccccn3)CC2)s1` [MLS000035284], 5.07.
As to `O=S1(=O)Nc2c(ccc3cccnc23)-c2ccccc21` [5H-quinolino[8,7-c][1,2]benzothiazine 6,6-dioxide], the pIC50 was 5.26.
The same measure, in the same setting: the figure for `COc1cc2nc(CN3CC=C(c4ccccc4)CC3)nc(O)c2cc1OC` [MLS000053305] is 5.89; for `O=C(CC=Nc1ccc2c(c1)OCO2)c1ccccn1` [(Z)-3-(1,3-benzodioxol-5-ylamino)-1-(2-pyridinyl)-2-propen-1-one] it is 4.87; for `COc1ccc(-c2cc3nc4n(c(=O)c3s2)CCC4)cc1` [2-(4-methoxyphenyl)-6,7-dihydropyrrolo[1,2-a]thieno[3,2-d]pyrimidin-9(5H)-one] it is 5.36.
Same read-out and setting: the figure for `CCOc1ccccc1-n1c(SCC(=O)Nc2ccc(CC)cc2)nc2nnc(C)c-2c1N` [MLS000047091] is 5.22.
The same measure, in the same setting: the figure for `Cn1c(SC2=CS(=O)(=O)c3ccccc32)nc2ccccc21` [2-(1,1-Dioxo-1H-1lambda*6*-benzo[b]thiophen-3-ylsulfanyl)-1-methyl-1H-benzoimidazole] is under 5.44; for `COCc1cc(CN2CCCC2)c(O)c2ncccc12` [5-(methoxymethyl)-7-(1-pyrrolidinylmethyl)-8-quinolinol] it is 5.38.
Compound `CCOc1ccc(-c2cc(CCCC(=O)NCCCOC)no2)cc1` [4-[5-(4-ethoxyphenyl)-1,2-oxazol-3-yl]-N-(3-methoxypropyl)butanamide] showed a pIC50 of 5.35.
Same read-out and setting: the figure for `O=S(=O)(Nc1cccc2ncccc12)c1cccs1` [MLS000057468] is 5.28; for `CCN(CC)c1ccc(-c2nn3c(-c4ccccc4OC)nnc3s2)cc1` it is 5.30; for `CN(C)CC(C(=O)c1ccccc1)c1ccccc1` (centres undefined) [3-(dimethylamino)-1,2-diphenyl-1-propanone;hydrochloride] it is under 5.44.
Compound `CCOC(=O)c1[n-]c2ccccc2c1[N+]#N` [(Z)-(3-diazonio-2-indolylidene)-ethoxymethanolate] gave a pIC50 of 4.95.
`O=S(=O)(NCc1ccncc1)c1ccc(Br)s1` [5-bromanyl-N-(pyridin-4-ylmethyl)thiophene-2-sulfonamide]: the pIC50 was 6.97.
Still for that read-out and setting: the figure for `CSC1=NC2=C(C(=O)CC(C)(C)C2)C(c2ccc(Cl)cc2)C1C#N` (centres undefined) [SMR000102109] is 4.67; for `c1ccc(N=C2N=C(Nc3ccccn3)c3ccccc32)nc1` [N-pyridin-2-yl-3-pyridin-2-yliminoisoindol-1-amine] it is 5.65.
Still for that read-out and setting: the result for `Cc1nnc(SC(=O)N2c3ccccc3Sc3ccccc32)s1` [10-phenothiazinecarbothioic acid S-(5-methyl-1,3,4-thiadiazol-2-yl) ester] reads 5.27.
Same read-out and setting: the figure for `N#Cc1c(NC(=O)CSc2nc[nH]n2)sc2c1CCCCC2` [N-(3-cyano-5,6,7,8-tetrahydro-4H-cyclohepta[b]thien-2-yl)-2-(1H-1,2,4-triazol-3-ylthio)acetamide] is 7.01; for `COc1ccc(C(=O)NC(=O)Nc2cc(C)ccn2)cc1` [4-methoxy-N-[(4-methyl-2-pyridyl)carbamoyl]benzamide] it is under 5.91; for `CCOc1cc(C(=O)CSc2nnc(CNc3ccc(Cl)cc3)o2)ccc1NC(=O)CC` [MLS000032332] it is 5.08.
Take `Cc1cccc(NC(=O)Nc2ccc(C#N)cc2)n1` [1-(4-cyanophenyl)-3-(6-methyl-2-pyridinyl)urea]: the pIC50 is under 5.91.

The assay is the same for the next values; noted with them: inactive by the depositor's call.
In the case of `CN1Cc2cc(C(=O)c3cc(Cl)cc(CSc4ncccn4)c3O)cnc2NC1=O` [6-[5-chloranyl-2-oxidanyl-3-(pyrimidin-2-ylsulfanylmethyl)phenyl]carbonyl-3-methyl-1,4-dihydropyrido[2,3-d]pyrimidin-2-one], the pIC50 was 4.90.
Same read-out and setting: the figure for `Cc1cc(N2CCN(c3nc4ccccc4s3)CC2)n2ncnc2n1` [2-[4-(5-methyl-[1,2,4]triazolo[1,5-a]pyrimidin-7-yl)-1-piperazinyl]-1,3-benzothiazole] is 4.64.
Still for that read-out and setting: the figure for `CCc1ccc(-c2nc(CSCC(=O)N3CCN(c4ncccn4)CC3)c(C)o2)cc1` [2-[[2-(4-ethylphenyl)-5-methyl-1,3-oxazol-4-yl]methylsulfanyl]-1-(4-pyrimidin-2-ylpiperazin-1-yl)ethanone] is 4.43; for `N#CC(C#N)=c1ccc2c(c1)NC1(CCCCC1)N=2` [2-spiro[3H-benzimidazole-2,1'-cyclohexane]-5-ylidenepropanedinitrile] it is 5.00; for `CCCCN(CCCC)S(=O)(=O)c1ccc(C(=O)Nc2nnc(CSC)o2)cc1` [4-(dibutylsulfamoyl)-N-[5-(methylsulfanylmethyl)-1,3,4-oxadiazol-2-yl]benzamide] it is 4.78.
The same measure, in the same setting: the figure for `FC(F)(F)c1ccc(N2CCN(c3cc(-c4ccccc4)nc4ncnn34)CC2)nc1` [5-Phenyl-7-[4-(5-trifluoromethyl-pyridin-2-yl)-piperazin-1-yl]-[1,2,4]triazolo[1,5-a]pyrimidine] is 4.67; for `COc1cc2c(C#N)c(N3CCN(c4ccccc4OC)CC3)nc(N)c2c(N)n1` [1,8-diamino-6-methoxy-3-(4-(2-methoxyphenyl)piperazin-1-yl)-2,7-naphthyridine-4-carbonitrile] it is 4.53.
`Cc1ccnc(SCC(=O)Nc2sc3c(c2C#N)CCCC3)n1` [MLS000077260] showed a pIC50 of 4.87.
The same measure, in the same setting: the figure for `COc1ccc(-c2nnc(NC(=O)c3ccc(S(=O)(=O)N4COCC4(C)C)cc3)o2)cc1` [4-(4,4-dimethyloxazolidin-3-yl)sulfonyl-N-[5-(4-methoxyphenyl)-1,3,4-oxadiazol-2-yl]benzamide] is 4.87; for `Cc1ccc(-c2cn3nc(C)c(C)nc3n2)cc1` [2,3-dimethyl-6-(4-methylphenyl)imidazo[1,2-b][1,2,4]triazine] it is 4.70; for `CCOC(=O)c1oc2ccc(S(=O)(=O)Nc3ccc4c(c3)n(C)c(=O)n4C)cc2c1C` [5-[(1,3-dimethyl-2-oxo-5-benzimidazolyl)sulfamoyl]-3-methyl-2-benzofurancarboxylic acid ethyl ester] it is 4.59.

These data come from BindingDB's records for doi:10.7270/Q2319T8T (The Scripps Research Institute Molecular Screening Center, 2007).
